Tests used:
[1] = 101.33 kPa, Liquid
[2] = xn = mol fraction of the nth substance listed; conditions: 101.3 kPa, Liquid

CCOC(=O)OCC [diethyl carbonate]
[1]
Conditions | mass density [kg/m3]
288.15 K | 980.29
293.15 K | 974.57
298.15 K | 969.07
303.15 K | 963.6
308.15 K | 957.98
318.15 K | 947.67
328.15 K | 935.12

CCOC(=O)OCC [diethyl carbonate] + CCCCCCCCCCCC
[2]
Conditions | mass density [kg/m3]
288.15 K, x1 = 0.1242 | 766.85
288.15 K, x1 = 0.2013 | 776.91
288.15 K, x1 = 0.2481 | 783.48
288.15 K, x1 = 0.309 | 792.61
288.15 K, x1 = 0.4053 | 808.61
288.15 K, x1 = 0.5069 | 827.83
288.15 K, x1 = 0.603 | 848.75
288.15 K, x1 = 0.7026 | 873.85
288.15 K, x1 = 0.8014 | 903.1
288.15 K, x1 = 0.8997 | 937.64
288.15 K, x1 = 0.9501 | 958.03
293.15 K, x1 = 0.1018 | 760.24
293.15 K, x1 = 0.2018 | 772.97
293.15 K, x1 = 0.2513 | 779.88
293.15 K, x1 = 0.3056 | 787.96
293.15 K, x1 = 0.4094 | 805.05
293.15 K, x1 = 0.5064 | 823.29
293.15 K, x1 = 0.604 | 844.35
293.15 K, x1 = 0.7024 | 868.92
293.15 K, x1 = 0.8026 | 898.28
293.15 K, x1 = 0.9022 | 933.11
293.15 K, x1 = 0.9498 | 952.23
298.15 K, x1 = 0.1025 | 756.57
298.15 K, x1 = 0.2042 | 769.39
298.15 K, x1 = 0.2522 | 776.01
298.15 K, x1 = 0.3009 | 783.17
298.15 K, x1 = 0.4041 | 799.89
298.15 K, x1 = 0.5027 | 818.2
298.15 K, x1 = 0.6059 | 840.28
298.15 K, x1 = 0.7074 | 865.61
298.15 K, x1 = 0.799 | 892.28
298.15 K, x1 = 0.8994 | 926.96
298.15 K, x1 = 0.9513 | 947.6
303.15 K, x1 = 0.1013 | 752.68
303.15 K, x1 = 0.2027 | 765.3
303.15 K, x1 = 0.2521 | 772.06
303.15 K, x1 = 0.3003 | 779.07
303.15 K, x1 = 0.4041 | 795.74
303.15 K, x1 = 0.4993 | 813.2
303.15 K, x1 = 0.605 | 835.58
303.15 K, x1 = 0.7035 | 859.82
303.15 K, x1 = 0.7993 | 887.45
303.15 K, x1 = 0.8999 | 921.93
303.15 K, x1 = 0.9508 | 942.05
308.15 K, x1 = 0.1049 | 749.28
308.15 K, x1 = 0.2059 | 761.76
308.15 K, x1 = 0.2441 | 766.93
308.15 K, x1 = 0.3043 | 775.59
308.15 K, x1 = 0.4026 | 791.26
308.15 K, x1 = 0.5062 | 810.2
308.15 K, x1 = 0.6032 | 830.59
308.15 K, x1 = 0.7045 | 855.29
308.15 K, x1 = 0.8015 | 883.09
308.15 K, x1 = 0.9005 | 916.79
308.15 K, x1 = 0.9507 | 936.48
318.15 K, x1 = 0.1041 | 741.75
318.15 K, x1 = 0.1989 | 753.22
318.15 K, x1 = 0.2492 | 759.89
318.15 K, x1 = 0.3079 | 768.25
318.15 K, x1 = 0.4075 | 783.98
318.15 K, x1 = 0.5 | 800.6
318.15 K, x1 = 0.6026 | 821.73
318.15 K, x1 = 0.7001 | 845.05
318.15 K, x1 = 0.7995 | 872.99
318.15 K, x1 = 0.8973 | 905.76
318.15 K, x1 = 0.9485 | 925.55
328.15 K, x1 = 0.1023 | 733.88
328.15 K, x1 = 0.2027 | 745.71
328.15 K, x1 = 0.2498 | 751.81
328.15 K, x1 = 0.3042 | 759.33
328.15 K, x1 = 0.3984 | 773.69
328.15 K, x1 = 0.5099 | 793.25
328.15 K, x1 = 0.6045 | 812.43
328.15 K, x1 = 0.7037 | 835.73
328.15 K, x1 = 0.7992 | 862.04
328.15 K, x1 = 0.8987 | 894.71
328.15 K, x1 = 0.9506 | 914.36

COC(=O)OC [dimethyl carbonate]
[1]
Conditions | mass density [kg/m3]
288.15 K | 1076.43
293.15 K | 1069.95
298.15 K | 1063.26
303.15 K | 1056.61
308.15 K | 1050.01
318.15 K | 1036.65
328.15 K | 1022.92

CCCCCCCCCCCC [dodecane]
[1]
Conditions | mass density [kg/m3]
288.15 K | 752.44
293.15 K | 748.8
298.15 K | 745.19
303.15 K | 741.57
308.15 K | 737.93
318.15 K | 730.7
328.15 K | 723.32

CCCCCCCCCCCC [dodecane] + COC(=O)OC
[2]
Conditions | mass density [kg/m3]
288.15 K, x2 = 0.1 | 763.29
288.15 K, x2 = 0.1984 | 775.97
288.15 K, x2 = 0.2519 | 783.82
288.15 K, x2 = 0.2998 | 791.48
288.15 K, x2 = 0.3943 | 808.72
288.15 K, x2 = 0.9498 | 1031.65
293.15 K, x2 = 0.0994 | 759.42
293.15 K, x2 = 0.2008 | 772.33
293.15 K, x2 = 0.2474 | 779.08
293.15 K, x2 = 0.2967 | 786.85
293.15 K, x2 = 0.3962 | 804.76
293.15 K, x2 = 0.9006 | 989.35
293.15 K, x2 = 0.9507 | 1026.33
298.15 K, x2 = 0.1015 | 755.81
298.15 K, x2 = 0.1968 | 767.75
298.15 K, x2 = 0.2518 | 775.63
298.15 K, x2 = 0.3057 | 784.12
298.15 K, x2 = 0.4019 | 801.57
298.15 K, x2 = 0.4976 | 822.41
298.15 K, x2 = 0.5975 | 849.03
298.15 K, x2 = 0.7026 | 884.3
298.15 K, x2 = 0.7991 | 925.9
298.15 K, x2 = 0.9011 | 984.3
298.15 K, x2 = 0.9512 | 1020.8
303.15 K, x2 = 0.0995 | 751.67
303.15 K, x2 = 0.195 | 763.42
303.15 K, x2 = 0.2498 | 771.18
303.15 K, x2 = 0.3315 | 784.26
303.15 K, x2 = 0.3999 | 796.8
303.15 K, x2 = 0.4997 | 818.35
303.15 K, x2 = 0.6015 | 845.3
303.15 K, x2 = 0.6974 | 876.92
303.15 K, x2 = 0.798 | 919.35
303.15 K, x2 = 0.8988 | 976.31
303.15 K, x2 = 0.9497 | 1012.95
308.15 K, x2 = 0.0998 | 747.85
308.15 K, x2 = 0.1992 | 759.93
308.15 K, x2 = 0.2486 | 766.84
308.15 K, x2 = 0.2938 | 773.75
308.15 K, x2 = 0.4017 | 792.74
308.15 K, x2 = 0.5014 | 814.12
308.15 K, x2 = 0.5995 | 839.81
308.15 K, x2 = 0.6978 | 871.92
308.15 K, x2 = 0.7983 | 914.04
308.15 K, x2 = 0.9004 | 971.25
308.15 K, x2 = 0.9494 | 1006.38
318.15 K, x2 = 0.1003 | 740.31
318.15 K, x2 = 0.2044 | 752.75
318.15 K, x2 = 0.251 | 759.14
318.15 K, x2 = 0.3042 | 767.18
318.15 K, x2 = 0.401 | 783.99
318.15 K, x2 = 0.4988 | 804.44
318.15 K, x2 = 0.6028 | 831.06
318.15 K, x2 = 0.6973 | 861.26
318.15 K, x2 = 0.8023 | 904.51
318.15 K, x2 = 0.8976 | 956.98
318.15 K, x2 = 0.9497 | 993.69
328.15 K, x2 = 0.0924 | 731.92
328.15 K, x2 = 0.2 | 744.23
328.15 K, x2 = 0.25 | 750.88
328.15 K, x2 = 0.3 | 758.18
328.15 K, x2 = 0.4007 | 775.11
328.15 K, x2 = 0.5003 | 795.39
328.15 K, x2 = 0.6158 | 824.8
328.15 K, x2 = 0.7057 | 853.75
328.15 K, x2 = 0.7855 | 885.61
328.15 K, x2 = 0.8981 | 945.23
328.15 K, x2 = 0.9483 | 979.79

— the NIST ThermoML archive (doi:10.1016/j.jct.2003.11.007)
